Laboratory results as given in patent US9844546B2, “Antibody against human HIF hydroxylase” (OXFORD UNIVERSITY INNOVATION LIMITED, priority 2001, dated 2017).
Like-named read-outs stand apart in the source and are kept apart here. *1 amine or outer side, *2 acyl side, *3 side chain or, on linkers, in order; H or OH if unused. Where a SMILES comes first, the peptide text is derived from it. Bridges are numbered along the chain shown (N, C = ends). Roman numbers before positions name the chains, in order. [ ]: non-standard residue; d: D form. Actinocin(9to1) = Cc1c2oc3c(C)ccc(C(=O)[*:1])c3nc-2c(C(=O)[*:2])c(N)c1=O; NMeV = CN[C@H](C(=O)O)C(C)C; Sar = CNCC(=O)O

What was measured:
[1] = test system: intact cells; assay: Entry into intact cells; type: cell-based
Description: In this Example it is shown that HIF-1α protein and the endogenous HIF target gene encoding carbonic anhydrase 9 (CA-9) are induced by exposure of cells to the PHD inhibitor, dimethyl oxalylglycine. […] The esterified form, dimethyloxalylglycine, has therefore been used to deliver the compound to tissue culture cells.
Application of an esterified form, dimethyloxalylglycine, to tissue culture cells results in stabilisation of HIF alpha chains (Example 1) and activation of transcription of endogenous HIF target genes (Example 5).

[2] = test system: rat SM-20 and human EGLN1 (PHD2), EGLN2 (PHD1), EGLN3 (PHD3); assay: Recombinant enzymes (reticulocyte IVTT) promoting pVHL interaction with HIF-1α residues 549-582; type: biochemical; conditions: all enzymes
Procedure: To test the role of these gene products in regulating the interaction between human HIFα sub-units and the VHL E3 ligase complex, we first produced the proteins by reticulocyte IVTT. […] After incubation with relevant enzyme, HIF-α substrates were mixed with extracts from 786-0/VHL cells that stably express HA tagged human pVHL, and tested for interaction by anti-HA immunoprecipitation.

[3] = test system: EGLN-2 and EGLN-3; assay: Modification and pVHL binding assay with reticulocyte lysate programmed with EGLN-2 or EGLN-3; type: biochemical, human; conditions: desferrioxamine 200 μM, cobaltous chloride 200 μM
Description: Protein containing HIF-1 sequence (amino acids 549-582) was generated in a reticulocyte in vitro transcription translation reaction in the presence of 100 micromolar desferrioxamine, retrieved and then exposed to […] translates containing the putative enzymes as described above. These proteins contain the critical proline (564) which can be modified by hydroxylation and which enables recognition by von Hippel Lindau tumour suppressor protein (pVHL).
The modification of the HIF-1 sequence was assayed by the binding of the HIF-1 to radiolabelled pVHL, generated by in vitro transcription and translation of a pcDNA3 vector containing the human wild type pVHL open reading frame in a rabbit reticulocyte lysate in the presence of ^35S-methionine.
Modification and pVHL binding assays were performed as described above. Rabbit reticulocyte lysate was programmed with pcDNA3 based plasmids containing no insert, an insert encoding the full open reading frame of the human homologue of C. elegans Egl-9 known as EGLN-2, or an insert encoding the full open reading frame of the human homologue known as EGLN-3. Modification was performed in the absence of additives, in the presence of oxalylglycine, oxalylglycine plus 2-oxoglutarate, 200 μM desferrioxamine or 200 μM cobaltous chloride.

[4] = test system: collagen prolyl-hydroxylase (CPH); conditions: cited from earlier work
[5] = test system: HIF hydroxylase (HPH activity); assay: HIF hydroxylase (HPH) inhibition, statements of the description; type: biochemical
[6] = test system: HIF-α prolyl-hydroxylase (HIF-PH) of cell extract; assay: Modifying activity (HIF-PH) of cell extract on HIF substrate (Gal/HIF-1α549-582/VP16 or 19:WT), pVHL capture assay; type: biochemical, mammalian
In short: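 Immunopurified HIF-1α substrate (19:WT polypeptide or Gal/HIF-1α549-582/VP16) on beads was incubated with cell extract under test conditions, washed, and tested for capture of 35S-labelled IVTT pVHL, visualised by fluorography. Hydroxylation activity was inferred from pVHL capture.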

[7] = test system: HeLa cells; assay: Hypoxic induction of total HIF-PH activity in HeLa cell lysates, pVHL capture assay; type: cell-based, human; conditions: hypoxia 16 hours
[8] = test system: EGL-9; assay: Recombinant EGL-9 modification of HIF-1, HA.VHL-1 capture; type: biochemical, C. elegans
Procedure: Preincubation of C. elegans HIF-1 with worm extract or recombinant EGL-9 was for 30 min at 25° C. Preincubation of mammalian HIF-α polypeptides with cell extract or recombinant enzymes was at 37° C. for 10-30 min unless otherwise stated. For assays of recombinant enzymes, 2-oxoglutarate (2 mM), iron (100 μM), and ascorbate (2 mM) were added to the reaction buffer unless otherwise indicated. Reactions performed in hypoxia were in the stated atmospheric oxygen concentration (balance nitrogen) obtained using a controlled environment Invivo2 400 hypoxia work-station (Ruskinn Technologies) and buffers pre-equilibrated with the appropriate atmosphere. Reactions (50 μl) were performed in open Eppendorf tubes with mixing and stopped by the addition of 20 volumes desferrioxamine (100 μM}.
To test whether EGL-9 could act directly on HIF-1, further preparations were made by baculoviral expression in insect cells and by expression as maltose binding protein ([…]) fusion proteins in E. coli. Since full length MBP/EGL-9 protein was insoluble when expressed in E. coli we prepared an N-terminal truncation containing residues 359-723 (MBP/ΔN.EGL-9) that preserved the predicted catalytic domain and had HIF.1 modifying activity when expressed as an IVTT. […]

[9] = test system: HIF-α/pVHL interaction; assay: Interaction of HIF-1α and pVHL.HA reticulocyte IVTTs, anti-HA co-immunoprecipitation; type: biochemical, human; conditions: 100 μM added to the HIF-1α IVTT
Procedure: ^35S-Methionine labelled […] subunits and pVHL.HA were produced separately by IVTT (in vitro transcription and translation) in reticulocyte lysates. IVTTs were performed under different conditions, mixed, and assayed for interaction by anti-HA co-immunoprecipitation. These in vitro assays allowed analysis of the HIFα/pVHL interaction using the recombinant proteins.
Labelled HIF-1α and pVHL.HA were generated separately in reticulocyte lysates (IVTT), in the presence or absence of Co (II), desferrioxamine, or Fe(II). Lysates were mixed in various combinations, and interactions assayed by anti-HA immunoprecipitation.
• 1. G. L. Semenza, Genes Dev 14, 1983-91. (2000). • 2. N. V. Iyer, et al., Genes Dev. 12, 149-162 (1997). • 3. E. Maltepe, J. V. Schmidt, D. Baunoch, C. A. Bradfield, M. C. Simon, Nature 386, 403-407 (1997). • 4. G. L. Wang, B.-H. Jiang, E. A. Rue, G. L. Semenza, Proc. Natl. Acad. Sci. USA 92, 5510-5514 (1995). • 5. S. Salceda, J. Caro, J. Biol. Chem. 272, 22642-22647 (1997). • 6. L. E. Huang, J. Gu, M. Schau, H. F. Bunn, Proc. Natl. Acad. Sci. USA 95, 7987-7992 (1998). • 7. M. S. Wiesener, et al., Blood 92, 2260-2268 (1998). • 8. P. H. Maxwell, et al., Nature 399, 271-275 (1999). • 9. K. Iwai, et al., Proc. Natl. Acad. Sci. USA 96, 12436-12441 (1999). • 10. J. Lisztwan, G. Imbert, C. Wirbelauer, M. Gstaiger, W. Krek, Genes Dev 13, 1822-33 (1999). • 11. M. E. Cockman, et al., J Biol Chem (2000). • 12. M. Ohh, et al., Nat Cell Biol 2, 423-7. (2000). • 13. T. Kamura, et al., Proc Natl Acad Sci USA 97, 10430-5. (2000). • 14. K. Tanimoto, Y. Makino, T. Pereira, L. Poellinger, Embo J 19, 4298-309. (2000). • 15. M. A. Goldberg, S. P. Dunning, H. F. Bunn, Science 242, 1412-1415 (1988). • 16. G. L. Wang, G. L. Semenza, Blood 82, 3610-3615 (1993). • 17. G. L. Semenza, Cell 98, 281-284 (1999). • 18. Hypoxia (<0.1% oxygen) was obtained in a workstation with O2, CO2 and temperature control (Ruskinn Technologies, Leeds, UK). For hypoxic harvest, buffers were preincubated in the chamber overnight. […]

| SMILES | ability to enter intact cells [1] | inhibition of enzyme activity promoting pVHL interaction with HIF-1α 549-582 [2] | Enzyme activity (modification of HIF-1 to VHL binding form) [3] | inhibition of CPH [4] | inhibition of HIF hydroxylase / HPH [5] | inhibition of HIF hydroxylase / HPH ([5]; listed as N-oxaloglycine) | Inhibition of pVHL capture ([6]; 0-2000 μM inhibitor, RCC4 cell extract, 5 or 100 μM FeCl2) | inhibition of modifying activity of cell extract on 19:WT (pVHL capture) ([6]; N-oxalylglycine 0.2-1 mM, overcome by 5 mM 2-oxoglutarate) | effect on induction of total HIF-PH activity by hypoxia [7] | effect on recombinant EGL-9 activity [8] | capture of HIF-1α by pVHL.HA [9] |
| --- | --- | --- | --- | --- | --- | --- | --- | --- | --- | --- | --- |
| O=C(O)CNC(=O)C(=O)O [N-oxalylglycine] | incapable of entering intact cells | strongly inhibited | diminished | inhibitor | act as inhibitors | inhibitor | increased with the concentration of inhibitor | completely inhibit |  |  |  |
| Cc1c2oc3c(C)ccc(C(=O)N[C@@H]4C(=O)N[C@H](C(C)C)C(=O)N5CCC[C@H]5C(=O)N(C)CC(=O)N(C)[C@@H](C(C)C)C(=O)O[C@@H]4C)c3nc-2c(C(=O)N[C@@H]2C(=O)N[C@H](C(C)C)C(=O)N3CCC[C@H]3C(=O)N(C)CC(=O)N(C)[C@@H](C(C)C)C(=O)O[C@@H]2C)c(N)c1=O [actinomycin D] (I: T[dV]P[Sar][NMeV] / II: T[dV]P[Sar][NMeV]; ester I:1-I:C, II:1-II:C; linker I:N-II:N via Actinocin(9to1)) |  |  |  |  |  |  |  |  | blocked |  |  |
| [Cl-].[Cl-].[Co+2] [Co(II), cobaltous chloride] |  | strongly inhibited | diminished |  |  |  |  |  |  | direct inhibition | greatly diminished capture |
